From patent US12703729B2, “GIP agonist compounds and methods” (Zealand Pharma A/S, priority 2014, dated 2026) come the findings set out here.

In general, pEC50 refers to the EC50 on a negative log10 scale, so that one unit is a factor of ten. Read a high pEC50 as a low EC50.

pEC50: −log10 of the molar value. Starred links: 1 amine or outer side, 2 acyl side, 3 side chain; linkers in the order of their positions; H or OH if unused. Non-standard residues stand in square brackets, D forms with d. Residues, ends and D or L forms follow the SMILES beside them. Groups on a side chain read outwards from the residue. *: point of attachment. C20 diacid = O=C(O)CCCCCCCCCCCCCCCCCCC(=O)*; γGlu = O=C(O)[C@H](CCC(=O)[*:2])N[*:1]; Palmitoyl = CCCCCCCCCCCCCCCC(=O)*; AEEA = NCCOCCOCC(=O)O; Aib = CC(C)(N)C(=O)O

In one assay the target is T1, human GIP R (Homo sapiens, UniProt P48546).
T1 sequence (P48546 22-466): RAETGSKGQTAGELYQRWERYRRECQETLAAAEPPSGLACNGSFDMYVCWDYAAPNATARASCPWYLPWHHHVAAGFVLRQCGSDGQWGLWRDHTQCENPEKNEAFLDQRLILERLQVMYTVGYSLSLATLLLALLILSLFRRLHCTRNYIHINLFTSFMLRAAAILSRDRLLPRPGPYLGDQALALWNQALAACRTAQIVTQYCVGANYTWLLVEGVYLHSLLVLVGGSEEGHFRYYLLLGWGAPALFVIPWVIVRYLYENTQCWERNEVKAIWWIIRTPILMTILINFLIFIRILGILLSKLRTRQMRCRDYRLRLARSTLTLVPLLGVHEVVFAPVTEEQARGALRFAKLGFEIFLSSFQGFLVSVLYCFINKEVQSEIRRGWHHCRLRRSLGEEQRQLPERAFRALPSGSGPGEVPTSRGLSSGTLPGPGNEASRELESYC
Nature of the assay: cell-based.

The target of assay [1] is T2, human GIP receptor (GIP R) (Homo sapiens, UniProt P48546).
T2 sequence (P48546 22-466): T1 sequence (P48546 22-466)
Nature of the assay: Activity assay at human GIP receptor, cAMP induction (AlphaScreen), Example 3. On the technique in general: In Alpha technology, singlet oxygen from a donor bead excites a nearby acceptor bead.

For `CCCCCCCCCCCCCCCC(=O)N[C@@H](CCC(=O)NCCCC[C@H](NC(=O)[C@H](CCCCN)NC(=O)[C@H](CC(=O)O)NC(=O)[C@H](CC(C)C)NC(=O)[C@H](CCC(=O)O)NC(=O)[C@@H](NC(=O)[C@H](CO)NC(=O)[C@H](Cc1ccc(O)cc1)NC(=O)[C@H](CC(=O)O)NC(=O)[C@H](CO)NC(=O)[C@@H](NC(=O)[C@H](Cc1ccccc1)NC(=O)[C@@H](NC(=O)CNC(=O)[C@H](CCC(=O)O)NC(=O)C(C)(C)NC(=O)[C@@H](N)Cc1ccc(O)cc1)[C@@H](C)O)[C@@H](C)CC)[C@@H](C)CC)C(=O)N[C@@H](Cc1c[nH]cn1)C(=O)N[C@@H](CCC(N)=O)C(=O)N[C@@H](CCC(N)=O)C(=O)N[C@@H](CC(=O)O)C(=O)N[C@@H](Cc1ccccc1)C(=O)N[C@H](C(=O)N[C@@H](CC(N)=O)C(=O)N[C@@H](Cc1c[nH]c2ccccc12)C(=O)N[C@@H](CC(C)C)C(=O)N[C@@H](CC(C)C)C(=O)N[C@@H](C)C(=O)N[C@@H](CCC(N)=O)C(=O)NCC(=O)N1CCC[C@H]1C(=O)N[C@@H](CO)C(=O)N[C@@H](CO)C(=O)NCC(=O)N[C@@H](C)C(=O)N1CCC[C@H]1C(=O)N1CCC[C@H]1C(=O)N1CCC[C@H]1C(=O)N[C@@H](CO)C(N)=O)C(C)C)C(=O)O` [Compound 1] (H-Y[Aib]EGTFISDYSIELDKK([γGlu-Palmitoyl])HQQDFVNWLLAQGPSSGAPPPS-NH2), on human GIP R, the pEC50 was 11.10.
As to `CCCCCCCCCCCCCCCC(=O)N[C@@H](CCC(=O)NCCCC[C@H](NC(=O)[C@H](CC(=O)O)NC(=O)[C@H](CC(C)C)NC(=O)[C@H](CCC(=O)O)NC(=O)[C@@H](NC(=O)[C@H](CO)NC(=O)[C@H](Cc1ccc(O)cc1)NC(=O)[C@H](CC(=O)O)NC(=O)[C@H](CO)NC(=O)[C@@H](NC(=O)[C@H](Cc1ccccc1)NC(=O)[C@@H](NC(=O)CNC(=O)[C@H](CCC(=O)O)NC(=O)C(C)(C)NC(=O)[C@@H](N)Cc1ccc(O)cc1)[C@@H](C)O)[C@@H](C)CC)[C@@H](C)CC)C(=O)N[C@H](C(=O)N[C@@H](Cc1c[nH]cn1)C(=O)N[C@@H](CCC(N)=O)C(=O)N[C@@H](CCC(N)=O)C(=O)N[C@@H](CC(=O)O)C(=O)N[C@@H](Cc1ccccc1)C(=O)N[C@H](C(=O)N[C@@H](CC(N)=O)C(=O)N[C@@H](Cc1c[nH]c2ccccc12)C(=O)N[C@@H](CC(C)C)C(=O)N[C@@H](CC(C)C)C(=O)N[C@@H](C)C(=O)N[C@@H](CCC(N)=O)C(=O)NCC(=O)N1CCC[C@H]1C(=O)N[C@@H](CO)C(=O)N[C@@H](CO)C(=O)NCC(=O)N[C@@H](C)C(=O)N1CCC[C@H]1C(=O)N1CCC[C@H]1C(=O)N1CCC[C@H]1C(=O)N[C@@H](CO)C(N)=O)C(C)C)[C@@H](C)CC)C(=O)O` [Compound 2] (H-Y[Aib]EGTFISDYSIELDK([γGlu-Palmitoyl])IHQQDFVNWLLAQGPSSGAPPPS-NH2), the pEC50 was 11.10 in assay [1] and 10.89 on human GIP R.
For `CCCCCCCCCCCCCCCC(=O)N[C@@H](CCC(=O)NCCCC[C@H](NC(=O)[C@H](CCCCN)NC(=O)[C@H](CCC(=O)O)NC(=O)[C@H](CC(C)C)NC(=O)[C@H](CCC(=O)O)NC(=O)[C@@H](NC(=O)[C@H](CO)NC(=O)[C@H](Cc1ccc(O)cc1)NC(=O)[C@H](CC(=O)O)NC(=O)[C@H](CO)NC(=O)[C@@H](NC(=O)[C@H](Cc1ccccc1)NC(=O)[C@@H](NC(=O)CNC(=O)[C@H](CCC(=O)O)NC(=O)C(C)(C)NC(=O)[C@@H](N)Cc1ccc(O)cc1)[C@@H](C)O)[C@@H](C)CC)[C@@H](C)CC)C(=O)N[C@@H](Cc1c[nH]cn1)C(=O)N[C@@H](CCC(N)=O)C(=O)N[C@@H](CCC(N)=O)C(=O)N[C@@H](CC(=O)O)C(=O)N[C@@H](Cc1ccccc1)C(=O)N[C@H](C(=O)N[C@@H](CC(N)=O)C(=O)N[C@@H](Cc1c[nH]c2ccccc12)C(=O)N[C@@H](CC(C)C)C(=O)N[C@@H](CC(C)C)C(=O)N[C@@H](C)C(=O)N[C@@H](CCC(N)=O)C(=O)NCC(=O)N1CCC[C@H]1C(=O)N[C@@H](CO)C(=O)N[C@@H](CO)C(=O)NCC(=O)N[C@@H](C)C(=O)N1CCC[C@H]1C(=O)N1CCC[C@H]1C(=O)N1CCC[C@H]1C(=O)N[C@@H](CO)C(N)=O)C(C)C)C(=O)O` [Compound 3] (H-Y[Aib]EGTFISDYSIELEKK([γGlu-Palmitoyl])HQQDFVNWLLAQGPSSGAPPPS-NH2) the same measures were 10.85 and 10.85.
For `CC[C@H](C)[C@H](NC(=O)[C@H](CCCCN)NC(=O)[C@H](CC(=O)O)NC(=O)[C@H](CC(C)C)NC(=O)[C@H](CCC(=O)O)NC(=O)[C@@H](NC(=O)[C@H](CO)NC(=O)[C@H](Cc1ccc(O)cc1)NC(=O)[C@H](CC(=O)O)NC(=O)[C@H](CO)NC(=O)[C@@H](NC(=O)[C@H](Cc1ccccc1)NC(=O)[C@@H](NC(=O)CNC(=O)[C@H](CCC(=O)O)NC(=O)C(C)(C)NC(=O)[C@@H](N)Cc1ccc(O)cc1)[C@@H](C)O)[C@@H](C)CC)[C@@H](C)CC)C(=O)N[C@@H](Cc1c[nH]cn1)C(=O)N[C@@H](CCC(N)=O)C(=O)N[C@@H](CCC(N)=O)C(=O)N[C@@H](CC(=O)O)C(=O)N[C@@H](Cc1ccccc1)C(=O)N[C@H](C(=O)N[C@@H](CC(N)=O)C(=O)N[C@@H](Cc1c[nH]c2ccccc12)C(=O)N[C@@H](CC(C)C)C(=O)N[C@@H](CC(C)C)C(=O)N[C@@H](C)C(=O)N[C@@H](CCC(N)=O)C(=O)NCC(=O)N1CCC[C@H]1C(=O)N[C@@H](CO)C(=O)N[C@@H](CO)C(=O)NCC(=O)N[C@@H](C)C(=O)N1CCC[C@H]1C(=O)N1CCC[C@H]1C(=O)N1CCC[C@H]1C(=O)N[C@@H](CO)C(=O)N[C@@H](CCCCNC(=O)COCCOCCNC(=O)COCCOCCNC(=O)CC[C@H](NC(=O)CCCCCCCCCCCCCCCCCCC(=O)O)C(=O)O)C(N)=O)C(C)C` [Compound 4] (H-Y[Aib]EGTFISDYSIELDKIHQQDFVNWLLAQGPSSGAPPPSK([AEEA-AEEA-γGlu-C20 diacid])-NH2) the same measures were 10.85 and 10.89.
Turning to `CCCCCCCCCCCCCCCC(=O)N[C@@H](CCC(=O)NCCCC[C@H](NC(=O)CNC(=O)[C@H](CCCCN)NC(=O)[C@H](CCC(N)=O)NC(=O)[C@H](C)NC(=O)[C@H](CC(C)C)NC(=O)[C@H](CC(C)C)NC(=O)[C@H](Cc1c[nH]c2ccccc12)NC(=O)[C@H](CC(N)=O)NC(=O)[C@@H](NC(=O)[C@H](Cc1ccccc1)NC(=O)[C@H](CC(=O)O)NC(=O)[C@H](CCC(N)=O)NC(=O)[C@H](CCC(N)=O)NC(=O)[C@H](Cc1c[nH]cn1)NC(=O)[C@@H](NC(=O)[C@H](CCCCN)NC(=O)[C@H](CC(=O)O)NC(=O)[C@H](CC(C)C)NC(=O)[C@H](CCC(=O)O)NC(=O)[C@@H](NC(=O)[C@H](CO)NC(=O)[C@H](Cc1ccc(O)cc1)NC(=O)[C@H](CC(=O)O)NC(=O)[C@H](CO)NC(=O)[C@@H](NC(=O)[C@H](Cc1ccccc1)NC(=O)[C@@H](NC(=O)CNC(=O)[C@H](CCC(=O)O)NC(=O)C(C)(C)NC(=O)[C@@H](N)Cc1ccc(O)cc1)[C@@H](C)O)[C@@H](C)CC)[C@@H](C)CC)[C@@H](C)CC)C(C)C)C(N)=O)C(=O)O` [Compound 7] (H-Y[Aib]EGTFISDYSIELDKIHQQDFVNWLLAQKGK([γGlu-Palmitoyl])-NH2), the pEC50 in assay [1] was 10.49.
